Reference: ChEMBL document CHEMBL1123274, “Azasteroids: structure-activity relationships for inhibition of 5 alpha-reductase and of androgen receptor binding” (J Med Chem, 1986)

Key:
Androgen receptor = target: T1, Androgen receptor (Rattus norvegicus, UniProt P15207); assay: In vitro antagonist activity against rat prostatic androgen receptor (AR)
T1 sequence (P15207 whole entry): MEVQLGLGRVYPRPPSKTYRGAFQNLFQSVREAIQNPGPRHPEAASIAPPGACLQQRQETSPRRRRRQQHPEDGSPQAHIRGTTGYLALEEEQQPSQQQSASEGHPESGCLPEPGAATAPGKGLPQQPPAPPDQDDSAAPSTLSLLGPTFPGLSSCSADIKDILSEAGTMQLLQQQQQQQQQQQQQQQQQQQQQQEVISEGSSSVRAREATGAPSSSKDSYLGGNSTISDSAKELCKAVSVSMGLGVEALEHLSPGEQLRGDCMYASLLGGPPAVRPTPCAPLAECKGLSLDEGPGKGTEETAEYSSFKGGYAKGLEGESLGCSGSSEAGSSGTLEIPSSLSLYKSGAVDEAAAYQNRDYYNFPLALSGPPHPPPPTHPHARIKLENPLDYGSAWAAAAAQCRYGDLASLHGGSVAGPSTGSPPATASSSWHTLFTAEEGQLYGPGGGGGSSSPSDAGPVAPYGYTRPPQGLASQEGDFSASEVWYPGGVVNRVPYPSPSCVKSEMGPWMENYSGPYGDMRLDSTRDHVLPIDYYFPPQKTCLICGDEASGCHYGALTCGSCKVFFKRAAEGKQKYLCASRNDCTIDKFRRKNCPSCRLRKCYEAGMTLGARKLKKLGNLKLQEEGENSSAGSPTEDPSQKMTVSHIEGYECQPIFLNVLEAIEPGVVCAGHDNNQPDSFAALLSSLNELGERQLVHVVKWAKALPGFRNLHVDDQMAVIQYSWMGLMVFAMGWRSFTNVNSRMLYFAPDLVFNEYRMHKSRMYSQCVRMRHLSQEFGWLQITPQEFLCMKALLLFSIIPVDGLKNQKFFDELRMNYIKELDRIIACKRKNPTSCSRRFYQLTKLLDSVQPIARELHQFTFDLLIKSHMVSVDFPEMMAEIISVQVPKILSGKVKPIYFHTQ

[1] = target: T2, Steroid 5-alpha-reductase (Rattus norvegicus, UniProt P24008+P31214); assay: Apparent inhibitory constant value for rat prostatic steroid 5-alpha reductase was determined; type: protein assay
T2 sequence (P24008 whole entry): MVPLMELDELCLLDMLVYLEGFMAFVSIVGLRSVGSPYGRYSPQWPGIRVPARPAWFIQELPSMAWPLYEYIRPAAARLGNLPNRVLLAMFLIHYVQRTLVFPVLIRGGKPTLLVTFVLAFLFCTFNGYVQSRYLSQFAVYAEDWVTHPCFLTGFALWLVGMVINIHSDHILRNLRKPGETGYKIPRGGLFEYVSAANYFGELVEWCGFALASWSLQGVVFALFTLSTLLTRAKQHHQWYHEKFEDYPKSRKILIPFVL
T2 sequence (P31214 whole entry): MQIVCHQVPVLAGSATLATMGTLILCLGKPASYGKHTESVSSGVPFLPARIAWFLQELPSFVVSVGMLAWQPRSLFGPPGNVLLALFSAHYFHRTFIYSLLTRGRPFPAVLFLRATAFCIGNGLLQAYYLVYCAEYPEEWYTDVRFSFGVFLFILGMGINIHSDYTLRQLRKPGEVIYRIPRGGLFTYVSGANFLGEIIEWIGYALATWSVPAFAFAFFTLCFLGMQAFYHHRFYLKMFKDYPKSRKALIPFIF

[2] = target: T2, Steroid 5-alpha-reductase; assay: In vitro inhibitory activity against rat prostatic steroid 5-alpha-reductase; type: protein assay
[3] = target: T2, Steroid 5-alpha-reductase; assay: Inhibition of Steroid 5-alpha-reductase from rat prostate; type: tissue-based, Prostate gland
[4] = target: T2, Steroid 5-alpha-reductase; assay: Apparent inhibitory constant value for rat prostatic steroid 5alpha reductase was determined; type: protein assay
[5] = target: T2, Steroid 5-alpha-reductase; assay: Apparent inhibitory constant value for rat prostatic 5-alpha reductase was determined; type: protein assay

Row | SMILES | IC50 (Androgen receptor) [nM] | Ki app [1] [nM] | IC50 [2] [nM] | IC50 [3] | Ki app [4] [nM] | Ki app [5] [nM]
1 | CCN(CC)C(=O)[C@H]1CC[C@H]2[C@@H]3CC[C@@H]4NC(=O)CC[C@]4(C)[C@H]3CC[C@]12C (stereo in doubt; 9x) | > 100000 | 29 | 41 |  |  | 
2 | COC(=O)[C@H]1CC[C@H]2[C@@H]3CCC4=CC(=O)CC[C@]4(C)[C@H]3CC[C@]12C | 140 |  |  | 4.8e-07 M |  | 
3 | CC(=O)[C@H]1CC[C@H]2[C@@H]3CCC4NC(=O)CC[C@]4(C)[C@H]3CC[C@]12C (stereo not given in full) | 68000 |  |  | 5e-08 M |  | 
4 | CC(O)[C@H]1CC[C@H]2[C@@H]3CCC4N(C)C(=O)CC[C@]4(C)[C@H]3CC[C@]12C (stereo not given in full) | 74 |  |  | 1.9e-08 M |  | 
5 | C[C@]12CC[C@H]3[C@@H](CCC4NC(=O)CC[C@@]43C)[C@@H]1CC[C@@H]2O (stereo not given in full) | 930 |  |  | 2.5e-07 M |  | 
6 | CCN(CC)C(=O)[C@H]1CC[C@H]2[C@@H]3CCC4=C(C#N)C(=O)CC[C@]4(C)[C@H]3CC[C@]12C | 1300 |  |  | 2.9e-08 M |  | 
7 | CC(O)[C@H]1CC[C@H]2[C@@H]3CCC4NC(=O)CC[C@]4(C)[C@H]3CC[C@]12C (stereo not given in full) | 9300 |  |  | 4.5e-08 M |  | 
8 | CC(C(=O)[O-])[C@H]1CC[C@H]2[C@@H]3CCC4N(C)C(=O)CC[C@]4(C)[C@H]3CC[C@]12C.[Na+] (stereo not given in full) | 46000 | 1.7 | 1.7 |  |  | 
9 | CN1C(=O)CC[C@@]2(C)C1CC[C@H]1[C@@H]3CC[C@H](O)[C@@]3(C)CC[C@@H]12 (stereo not given in full) | 19 |  |  | 1.5e-07 M |  | 
10 | C[C@]12CC[C@H]3[C@@H](CCC4=CC(=O)CC[C@@H]43)[C@@H]1CC[C@@]21CCCO1 | 30 |  |  | 1.5e-06 M |  | 
11 | CCN(CC)C(=O)[C@H]1CC[C@H]2[C@@H]3CC[C@H]4N(C)C(=O)CC[C@]4(C)[C@H]3CC[C@]12C | 2800 |  | 11 |  | 5 | 
12 | CC(O)[C@@]1(O)CC[C@H]2[C@@H]3CCC4N(C)C(=O)CC[C@]4(C)[C@H]3CC[C@@]21C (stereo not given in full) | 1900 | 6 | 7.6 |  |  | 
13 | CC(C)N(C(=O)[C@H]1CC[C@H]2[C@@H]3CCC4NC(=O)CC[C@]4(C)[C@H]3CC[C@]12C)C(C)C (stereo not given in full) | > 100000 | 13 | 11 |  |  | 
14 | C[C@]12CCC(=O)CC1CC[C@@H]1[C@@H]2CC[C@@]2(C)[C@H]1CC[C@@]21CCCO1 (stereo not given in full) | 23 |  |  | > 1e-06 M |  | 
15 | COC(=O)[C@H]1CC[C@H]2[C@@H]3CCC4N(C)C(=O)CC[C@]4(C)[C@H]3CC[C@]12C (stereo not given in full) | 120 |  | 7.6 |  |  | 165
16 | C[C@]12CC[C@H]3[C@@H](CCC4=CC(=O)CC[C@@]43C)[C@@H]1CC[C@@H]2C(=O)O | 8900 |  |  | 6.6e-07 M |  | 
17 | C=C1C[C@@H]2[C@H](CC[C@@]3(C)[C@H]2CC[C@]3(OC(C)=O)C(C)=O)[C@@]2(C)CCC(=O)C=C12 |  |  |  | 1.6e-07 M |  | 
18 | CN1C(=O)CC[C@@]2(C)C1CC[C@@H]1[C@@H]2CC[C@@]2(C)[C@H]1CC[C@@]21CCCO1 (stereo not given in full) | 140 | 24 | 37 |  |  | 

Row | SMILES | IC50 (Androgen receptor) [nM] | Ki app [1] [nM] | IC50 [2] [nM] | IC50 [3] | Ki app [4] [nM] | Ki app [5] [nM]
19 | CCN(CC)C(=O)[C@H]1CC[C@H]2[C@@H]3CCC4=CC(=O)CC[C@]4(C)[C@H]3CC[C@]12C | 340 |  |  | 7.6e-07 M |  | 
20 | CN1C(=O)CC[C@@]2(C)C1CC[C@@H]1[C@@H]2CC[C@@]2(C)[C@H]1CC[C@@]21CCC(=O)O1 (stereo not given in full) | 89 |  | 40 |  |  | 
21 | CCNC(=O)[C@H]1CC[C@H]2[C@@H]3CCC4N(C)C(=O)CC[C@]4(C)[C@H]3CC[C@]12C (stereo not given in full) | 1100 |  | 12 |  |  | 
22 | CCN1C(=O)CC[C@@]2(C)C1CC[C@@H]1[C@@H]2CC[C@@]2(C)[C@H]1CC[C@@]21CCCO1 (stereo not given in full) | 13000 |  | 1170 |  |  | 
23 | C[C@]12CCC(=O)C=C1CC[C@@H]1[C@@H]2CC[C@@]2(C)[C@H]1CC[C@@]21CCCO1 | 89 |  |  | 1.1e-06 M |  | 
24 | CC(C)N(C(=O)[C@H]1CC[C@H]2[C@@H]3CC=C4NC(=O)CC[C@]4(C)[C@H]3CC[C@]12C)C(C)C | 14000 |  | 86 |  |  | 
25 | CNC(=O)[C@H]1CC[C@H]2[C@@H]3CCC4N(C)C(=O)CC[C@]4(C)[C@H]3CC[C@]12C (stereo not given in full) | 1100 |  | 38 |  |  | 
26 | CN1C(=O)CC[C@@]2(C)C1CC[C@H]1[C@@H]3CC[C@H](C(N)=O)[C@@]3(C)CC[C@@H]12 (stereo not given in full) | 440 |  | 17 |  |  | 
27 | CCN(CC)C(=O)[C@H]1CC[C@H]2[C@@H]3CC[C@H]4N(C)C(=O)C[C@H](C)[C@]4(C)[C@H]3CC[C@]12C | 16000 |  | 86 |  |  | 
28 | C[C@]12CCC(=O)C[C@@H]1CC[C@@H]1[C@@H]2CC[C@]2(C)[C@@H](O)CC[C@@H]12 [STANOLONE] |  |  |  | >> 1e-6 M |  | 
29 | C[C@H]1CC2N(C)C(=O)CC[C@]2(C)[C@H]2CC[C@@]3(C)[C@@H](CC[C@@]34CCCO4)[C@H]12 (stereo not given in full) | 500 |  | 4.6 |  |  | 
30 | CC(=O)[C@H]1[C@@H](C)C[C@H]2[C@@H]3CCC4N(C)C(=O)CC[C@]4(C)[C@H]3CC[C@@]21C (stereo not given in full) | 8600 |  | 16 |  |  | 
31 | CCCCCCCCNC(=O)[C@H]1CC[C@H]2[C@@H]3CCC4NC(=O)CC[C@]4(C)[C@H]3CC[C@]12C (stereo not given in full) | 5200 |  | 0.13 |  |  | 
32 | CC(=O)[C@H]1CC[C@H]2[C@@H]3CCC4N(C)C(=O)CC[C@]4(C)[C@H]3CC[C@]12C (stereo not given in full) | 210 |  |  | 2.3e-08 M |  | 
33 | CC(O)[C@H]1[C@H](C)C[C@H]2[C@@H]3CCC4N(C)C(=O)CC[C@]4(C)[C@H]3CC[C@@]21C (stereo not given in full) | 170 |  | 2.8 |  |  | 
34 | C[C@]12CCC(=O)NC1CC[C@@H]1[C@@H]2CC[C@@]2(C)[C@H]1CC[C@@]21CCCO1 (stereo not given in full) | 2500 |  | 93 |  |  | 
35 | CCN(CC)C(=O)C[C@H]1CC[C@H]2[C@@H]3CCC4N(C)C(=O)CC[C@]4(C)[C@H]3CC[C@]12C (stereo not given in full) | 560 |  | 7.9 |  |  | 
